In PMC9268013, “Design, Synthesis, and Biological Evaluation of N14-Amino Acid-Substituted Tetrandrine Derivatives as Potential Antitumor Agents against Human Colorectal Cancer” (Molecules, 2022):

What was measured:
[1] = system: human pancreatic cancer cells (BxPC-3); assay: MTT antiproliferative assay, BxPC-3; format: cell-based
Protocol: Human lung cancer cell (A549,), human umbilical vein endothelial cells (HUVECs,), human colon cancer cell lines (HCT-15), human breast cancer cells (MCF-7), human liver cancer cells (HepG2), human pancreatic cancer cells (BxPC-3), and human hepatic cell line (L-02) were obtained from the Sichuan University. A549, HUVECs, and L-02 were cultured in DMEM medium (high glucose, HyClone, GE Healthcare, Sydney, Australia). Human colon cancer cell lines HCT-15, human pancreatic cancer cells […] BxPC-3 were cultured in RPMI-1640. Human breast cancer cells MCF-7 and human liver cancer cells HepG2 were cultured in MEM medium. All the mediums, including 10% fetal bovine serum (FBS, HyClone, GE Healthcare, Sydney, Australia) and 1% ampicillin/streptomycin, were used to culture the above cells at 37 °C in a humidified atmosphere (5% CO2 and 95% air).
The antiproliferative activity of the title compounds was determined using the MTT (3-(4,5-dimethylthiazol-2-yl)-2,5-diphenyltetrazolium bromide, Sigma-Aldrich, Saint Louis, MO, USA) assay on different cells. Cells lines were seeded into 96-well plates at a density of 2000 to 6000 cells/well. DMSO was used to dissolve the test compounds, and TET was used as a positive control. After 24 h, the test compounds were added at different concentrations (0.625, 1.25, 2.5, 5, 10, and 20 μM) and incubated at 37 °C for 72 h. MTT was added to each well at a final concentration of 0.5 mg/mL and incubated at 37 °C for 4 h. Then, 150 μL of DMSO was added to each well to dissolve the formazan crystals. The absorbance was measured at 570 nm by a microplate reader (ELX800UV, Bio-Tek, Windoski, VT, USA). All measurements were repeated at least three times under the same conditions. Graphpad Prism 8.0 was used to calculate the IC50 values.

[2] = system: HCT-15 cells; assay: Transwell invasion assay; format: cell-based, human; conditions: HCT-15, transwell, 5 and 10 μM, 20 h
Protocol: The cell motility inhibitory effect of 16 on HCT-15 cells was evaluated by invasion assay. Briefly, cells were harvested and resuspended in serum-free medium that contained 0.625, 1.25, 2.5, 5, and 10 μM of 16, and were seeded into the upper wells of a transwell chamber (Millicell, […] pore size, 12-mm diameter Millipore) coated with 50 μL of Matrigel (1:3 dilution in serum-free medium, Corning/BD Biosciences) at a density of 2 × 10^5 cells/mL. Meanwhile, 600 μL medium containing 10% FBS and corresponding samples were added into the lower chambers. Then, 20 h later, the invading cells were fixed with 4% paraformaldehyde and stained with 0.2% crystal violet for 30 min. Afterwards, the chambers were washed twice with PBS and left to dry. Cells which had migrated to the lower chamber of the transwell were photographed using a digital camera with an inverted microscope (Nikon ECLIPSE TE2000-U, Tokyo, Japan), and the crystal violet positive cells were counted.

[3] = system: HCT-15 cells; assay: Live/dead FDA/PI double staining, HCT-15; format: cell-based; conditions: Homo sapiens, HCT-15, FDA/PI, 48 h, read-out: Viable cells retained
Protocol: HCT-15 or HUVEC cells were cultured in six-well plates for 24 h. The cells were washed with PBS and incubated with medium containing 0.625, 1.25, 2.5, 5, and 10 μM of 16 for 48 h. Afterwards, the medium was replaced, and the cells were washed twice with PBS, resuspended in the solution containing 100 μL FDA (0.02 mg/mL, Sigma, St. Louis, MO, USA) and 30 μL PI (0.02 mg/mL, Sigma, St. Louis, MO, USA), and treated in the dark at room temperature for 10 min. The cells were imaged with a fluorescence microscope (Nikon ECLIPSE TE2000-U, Tokyo, Japan).

[4] = system: caspase-3; assay: Western blot, caspase-3 in HCT-15 cells; format: cell-based, human; conditions: HCT-15, 0.625, 1.25, and 2.5 μM, p < 0.05, no concentration dependence
Protocol: The protein levels in HCT-15 cells were evaluated via Western blot analysis. The cells were cultured in dishes (10^7 cells per dish) and incubated overnight at 37 °C, 0.625, 1.25, 2.5, and 5 μM of 16 was added in triplicate after 24 h of incubation. Then, the cells were harvested and lysed in Laemmli buffer (glycerol, 1M TRIS pH 6.8, 1% SDS, MQ H2O and 20% β-mercaptoethanol). The samples were boiled for 5 min at 95 °C, and the protein content was determined using a BCA kit. Equal amounts of 30 μg of sample were placed on a Tris/HCl gel and separated by SDS-PAGE electrophoresis. Then, the samples were transferred to a PVDF membrane (Milibo, Co., Ltd., Billyka, MA, USA) and blocked with 5% skimmed milk powder for 2 h. Diluted primary antibodies Bcl-2 (1:3000), Bax (1:10,000), caspase-3 (l:2000), p62 (1:1000), Beclin1 (1:1000), LC3 (1:2000), and β-actin (1:1000) were incubated overnight at 4 °C, followed by a horseradish peroxidase-conjugated goat anti-rabbit IgG secondary antibody (ProteinTech, China) for 2 h at room temperature. Then, immunoreactivity was developed with diaminobenzidine solution, and scanned and recorded by a gel imaging system (G:BOX Chemi XL1.4, Frederick, MD, USA).

- IC50 ([1]; 72 h): 1.12 ± 0.1 µM
- IC50 ([1]; Homo sapiens, BXPC-3, 72 h): < 1.5 µM
SMILES: COc1cc(NC(=O)[C@@H]2CCCN2)c2cc1Oc1ccc(cc1)C[C@H]1c3cc(c(OC)cc3CCN1C)Oc1c(OC)c(OC)cc3c1[C@H](C2)N(C)CC3 [Compound 16, 14-N-(L-proline)-tetrandrine]
- Invaded cells [2]: almost no cancer cells were observed
- viability at 5 µM ([3]; 5 μM): 18.3%
- viability at 10 µM ([3]; 10 μM): 17.6%
- Caspase-3 level [4]: significantly decreased
